Assay results reported in ChEMBL document CHEMBL3576852, “Switch in Site of Inhibition: A Strategy for Structure-Based Discovery of Human Topoisomerase IIα Catalytic Inhibitors” (ACS Med Chem Lett, 2015).
Activity calls are given as the source filed them. No cut-off for these calls is given here.

Assays:
[1] = target: T1, DNA topoisomerase 2-alpha (Homo sapiens, UniProt P11388); assay: Inhibition of human topoisomerase 2alpha assessed as reduction in enzyme-mediated relaxation of negatively supercoiled pRYG DNA at 100 uM incubated for 30 mins by ethidium bromide staining based gel electrophoresis method
T1 sequence (P11388 whole entry): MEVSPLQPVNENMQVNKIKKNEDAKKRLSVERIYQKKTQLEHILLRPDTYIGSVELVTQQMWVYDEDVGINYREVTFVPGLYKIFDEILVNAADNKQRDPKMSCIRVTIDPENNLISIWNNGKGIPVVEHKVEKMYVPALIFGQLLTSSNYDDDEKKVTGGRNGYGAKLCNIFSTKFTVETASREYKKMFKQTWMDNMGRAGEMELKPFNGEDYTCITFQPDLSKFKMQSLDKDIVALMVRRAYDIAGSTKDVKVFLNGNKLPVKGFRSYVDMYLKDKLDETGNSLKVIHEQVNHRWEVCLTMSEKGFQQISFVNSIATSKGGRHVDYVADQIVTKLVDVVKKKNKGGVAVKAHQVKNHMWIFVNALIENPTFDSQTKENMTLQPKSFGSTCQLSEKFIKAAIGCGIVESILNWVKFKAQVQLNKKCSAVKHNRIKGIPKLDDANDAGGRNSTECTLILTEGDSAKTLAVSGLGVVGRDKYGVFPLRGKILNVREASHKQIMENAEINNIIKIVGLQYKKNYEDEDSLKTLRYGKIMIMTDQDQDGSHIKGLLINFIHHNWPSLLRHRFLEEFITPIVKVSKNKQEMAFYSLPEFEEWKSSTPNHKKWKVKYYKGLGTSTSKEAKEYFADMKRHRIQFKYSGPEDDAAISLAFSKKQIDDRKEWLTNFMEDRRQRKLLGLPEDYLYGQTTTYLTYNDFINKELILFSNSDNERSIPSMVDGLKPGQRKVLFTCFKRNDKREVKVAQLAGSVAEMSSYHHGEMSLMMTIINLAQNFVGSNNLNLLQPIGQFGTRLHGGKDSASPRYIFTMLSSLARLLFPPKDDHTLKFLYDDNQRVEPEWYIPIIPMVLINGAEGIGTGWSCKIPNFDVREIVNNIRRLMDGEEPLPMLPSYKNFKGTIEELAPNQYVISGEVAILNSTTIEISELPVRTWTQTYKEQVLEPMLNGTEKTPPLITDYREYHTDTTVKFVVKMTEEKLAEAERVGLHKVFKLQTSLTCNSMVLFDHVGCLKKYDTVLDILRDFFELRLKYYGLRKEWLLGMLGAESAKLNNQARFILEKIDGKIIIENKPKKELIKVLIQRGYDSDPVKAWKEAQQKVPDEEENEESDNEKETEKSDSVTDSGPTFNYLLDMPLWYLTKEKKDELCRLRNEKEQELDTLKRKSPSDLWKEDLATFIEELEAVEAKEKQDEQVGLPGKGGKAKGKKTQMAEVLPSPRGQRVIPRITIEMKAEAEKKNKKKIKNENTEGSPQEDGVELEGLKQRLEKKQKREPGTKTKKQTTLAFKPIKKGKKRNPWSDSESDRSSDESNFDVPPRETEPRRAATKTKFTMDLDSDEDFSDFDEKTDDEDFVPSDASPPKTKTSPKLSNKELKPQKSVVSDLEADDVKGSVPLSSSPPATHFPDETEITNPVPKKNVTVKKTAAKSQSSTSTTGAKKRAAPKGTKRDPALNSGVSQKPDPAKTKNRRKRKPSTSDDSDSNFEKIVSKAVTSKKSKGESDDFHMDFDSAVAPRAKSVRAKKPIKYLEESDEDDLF

[2] = target: T1, DNA topoisomerase 2-alpha; assay: Inhibition of human topoisomerase 2alpha assessed as reduction in enzyme-mediated kinetoplast DNA decatenation at 100 uM incubated for 30 mins by agarose gel electrophoresis method
[3] = target: T1, DNA topoisomerase 2-alpha; assay: Inhibition of human topoisomerase 2alpha assessed as reduction in enzyme-mediated kinetoplast DNA decatenation incubated for 30 mins by agarose gel electrophoresis method
[4] = target: T2, DNA topoisomerase 1 (Homo sapiens) (UniProt P11387); assay: Inhibition of human topoisomerase-1 assessed as reduction in enzyme-mediated relaxation of negatively supercoiled pRYG DNA at 100 uM incubated for 30 mins by ethidium bromide staining based gel electrophoresis method
T2 sequence (whole entry): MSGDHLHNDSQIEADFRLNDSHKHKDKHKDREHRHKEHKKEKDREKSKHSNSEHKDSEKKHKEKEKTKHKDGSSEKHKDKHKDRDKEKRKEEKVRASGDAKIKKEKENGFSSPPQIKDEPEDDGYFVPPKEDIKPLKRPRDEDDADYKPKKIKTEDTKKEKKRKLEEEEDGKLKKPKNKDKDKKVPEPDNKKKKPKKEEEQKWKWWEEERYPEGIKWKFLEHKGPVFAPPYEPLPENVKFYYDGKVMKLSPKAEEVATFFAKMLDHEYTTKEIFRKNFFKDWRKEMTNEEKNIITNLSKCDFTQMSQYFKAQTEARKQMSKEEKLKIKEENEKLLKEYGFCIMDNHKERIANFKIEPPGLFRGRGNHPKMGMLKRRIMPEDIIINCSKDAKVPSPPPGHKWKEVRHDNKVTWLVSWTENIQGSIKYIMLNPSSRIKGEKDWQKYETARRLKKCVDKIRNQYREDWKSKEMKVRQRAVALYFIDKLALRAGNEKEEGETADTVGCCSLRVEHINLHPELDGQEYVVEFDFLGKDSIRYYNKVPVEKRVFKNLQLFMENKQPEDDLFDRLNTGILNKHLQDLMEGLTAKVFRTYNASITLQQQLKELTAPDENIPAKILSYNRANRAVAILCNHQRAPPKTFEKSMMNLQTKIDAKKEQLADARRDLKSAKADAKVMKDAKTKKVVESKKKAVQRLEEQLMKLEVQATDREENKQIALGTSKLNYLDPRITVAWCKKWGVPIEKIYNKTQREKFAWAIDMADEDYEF

[5] = target: T1, DNA topoisomerase 2-alpha; assay: Poisoning activity against human topoisomerase 2alpha assessed as induction of linear DNA formation at 100 uM incubated for 20 mins using small circular supercoiled pHOT DNA substrate by ethidium bromide staining based gel electrophoresis method
HEK293 = assay: Cytotoxicity against HEK293 cells assessed as reduction in cell viability after 48 hrs by MTT assay; format: functional; conditions: Homo sapiens; for CC50: HEK293, 48 h, read-out: LC50 (the source's name)
[6] = Cytotoxicity against African green monkey Vero cells assessed as cell viability at 75 uM after 48 hrs by MTT assay; format: cell-based; conditions: chlorocebus sabaeus, read-out: Activity
[7] = target: T1, DNA topoisomerase 2-alpha; assay: Inhibition of topoisomerase 2alpha in HEK293 cells at 5 to 15 uM incubated for 48 hrs using TOP-FLASH plasmid substrate by ethidium bromide staining based agarose gel electrophoresis method; format: cell-based
[8] = Binding affinity to TOP-FLASH TCF/LEF transcription factor DNA (unknown origin) at 5 to 25 uM incubated for 2 hrs by UV-visible spectrophotometry
Nucleic Acid = assay: Induction of DNA intercalation of Escherichia coli pUC19 DNA at 100 uM by ethidium bromide staining based agarose gel electrophoresis method; format: nucleic-acid assay
[9] = target: T1, DNA topoisomerase 2-alpha; assay: Inhibition of etoposide-enhanced human topoisomerase 2alpha-mediated DNA cleavage at 100 to 400 uM pre-incubated for 2 mins before 100 uM etoposide addition by ethidium bromide staining based gel electrophoresis method
[10] = target: T1, DNA topoisomerase 2-alpha; assay: Inhibition of etoposide-enhanced human topoisomerase 2alpha-mediated DNA cleavage at 100 to 400 uM pre-incubated for 2 mins with 100 uM etoposide followed by compound addition by ethidium bromide staining based gel electrophoresis method
[11] = target: T1, DNA topoisomerase 2-alpha; assay: Inhibition of etoposide-enhanced human topoisomerase 2alpha-mediated DNA cleavage at 100 to 400 uM incubated for 2 mins with simultaneous addition of 100 uM etoposide by ethidium bromide staining based gel electrophoresis method
[12] = target: T1, DNA topoisomerase 2-alpha; assay: Inhibition of human topoisomerase 2alpha ATPase activity assessed as inorganic phosphate release at 100 uM using pUC19 DNA substrate by malachite green reagent based ATPase inhibition assay
[13] = Cytotoxicity against African green monkey Vero cells assessed as reduction in cell viability after 48 hrs by MTT assay; format: cell-based; conditions: chlorocebus sabaeus, read-out: LC50
[14] = target: T1, DNA topoisomerase 2-alpha; conditions: HEK293, 45 uM
Description: Inhibition of topoisomerase 2alpha in HEK293 cells at 45 uM incubated for 48 hrs using TOP-FLASH plasmid substrate by ethidium bromide staining based agarose gel electrophoresis method

[15] = target: T1, DNA topoisomerase 2-alpha; assay: Inhibition of etoposide-enhanced human topoisomerase 2alpha-mediated DNA cleavage at 100 to 400 uM incubated for 2 mins in presence of 100 uM etoposide by ethidium bromide staining based gel electrophoresis method

SMILES	inhibition [1]	inhibition [2]	inhibition [4]	Activity [5]	Activity (HEK293)	CC50 (HEK293)	viability at 48 h, 75 µM [6]	other results
COc1ccc(-c2ccc(-c3nc4ccccn4c3NC(C)(C)C)cc2)cc1	inactive	inactive	–	–	–	–	–	–
CC(C)(C)Nc1c(-c2ccc(-c3ccccc3)cc2)nc2cnccn12	Active	Active	–	–	–	–	–	–
CC(C)(C)Nc1c(-c2ccc(Cl)cc2)nc2ccc(-c3ccccc3)cn12	Active	Active	inactive	inactive	Dose-dependent effect	10 µM	> 30%	IC50 [3]: 55.4 µM; inhibition [7]: Active; Activity [8]: inactive; Activity (Nucleic Acid): inactive; inhibition [9]: Dose-dependent effect; inhibition [10]: Active; inhibition [11]: Active; inhibition [12]: Active
CC(=O)c1ccc(-c2ccc(-c3nc4cnccn4c3NC(C)(C)C)cc2)cc1	Active	Active	–	–	–	–	–	–
CC(C)(C)Nc1c(-c2ccc(-c3ccc(F)cc3)cc2)nc2cnccn12	inactive	inactive	–	–	–	–	–	–
CC(C)(C)Nc1c(-c2ccc(Cl)cc2)nc2ccc(-c3ccc(F)cc3)cn12	Active	Active	inactive	inactive	Dose-dependent effect	8 µM	> 30%	–
COc1ccc(-c2ccc3nc(-c4ccc(Cl)cc4)c(NC(C)(C)C)n3c2)cc1	Active	Active	inactive	inactive	Dose-dependent effect	10 µM	> 30%	–
Cc1ccc(-c2ccc3nc(-c4ccc(Cl)cc4)c(NC(C)(C)C)n3c2)cc1	Active	Active	inactive	inactive	Dose-dependent effect	15 µM	> 30%	–
CC(C)(C)Nc1c(-c2ccc(-c3ccc(Cl)cc3)cc2)nc2ccccn12	inactive	inactive	–	–	–	–	–	–
COc1ccc(-c2nc3ccc(-c4ccccc4)cn3c2NC(C)(C)C)cc1	Active	Active	inactive	inactive	Dose-dependent effect	13 µM	> 30%	–
COc1cc([C@@H]2c3cc4c(cc3[C@@H](O[C@@H]3O[C@@H]5CO[C@@H](C)O[C@H]5[C@H](O)[C@H]3O)[C@H]3COC(=O)[C@H]23)OCO4)cc(OC)c1O [ETOPOSIDE]	–	–	–	Active	–	55 µM	–	CC50 at 48 h [13]: 75 µM; inhibition [14]: Active
CC(C)(C)Nc1c(-c2ccc(C(=O)O)cc2)nc2ccccn12	–	–	–	–	–	–	–	inhibition [15]: inactive
